# Tests used:
# [1] = tested on: indigenous stool microflora; test: DGGE of PCR-amplified bacterial ribosomal RNA genes from stool (Example 3); format: in vivo, mice; details: subcutaneous clindamycin
# Candida glabrata A239 = test: Minimum-inhibitory concentration for Candida glabrata A239; format: cell-based; details: clinical isolate A239
# Description: Pathogens Studied: E. faecium C68, a previously described VanB-type clinical VRE isolate, was used for the following murine VRE experiments (Donskey et al., J. Microbial. Meth. 1807: 1-8, 2003). […] Klebsiella pneumoniae P62 is a clinical isolate that produces an SHV type extended-spectrum β-lactamase (ESBL). Candida glabrata A239 is a clinical isolate with a fluconazole minimum-inhibitory concentration of 2 μg/mL.
# [2] = tested on: clinical isolate VanA strain of E. faecium (VRE); test: VRE suppression in a mouse model (Example 1); format: in vivo, mice
# Text: (§1) Mice were colonized with a clinical isolate VanA strain of E. faecium (VRE) isolated from a septicemic patient. A single inoculation of 5×10^8 cfu VRE by oral gavage (Day 0) was followed by treatment with vancomycin in the drinking water to maintain colonization. On day 22, each group received the same vancomycin-containing drinking water. […] The control group consisted of five mice, while the ramoplanin group consisted of four mice.
# Total Enterococci = test: VRE suppression in a mouse model (Example 1), total enterococci in faeces; format: in vivo, mice
# Text: as §1
# [3] = Day 22, prior to ramoplanin therapy
# [4] = Day 29, completion of ramoplanin therapy
# [5] = Day 36, 7 days after completion of ramoplanin therapy
structure (smiles),measurement,setting,value
CCC[C@@H]1C[C@@H](C(=O)N[C@@H]([C@H]2O[C@H](SC)[C@H](O)[C@@H](O)[C@H]2O)[C@H](C)Cl)N(C)C1 [clindamycin],"stool DGGE patterns, mean similarity indices in comparison to pre-treatment patterns",[1],17%
OC(Cn1cncn1)(Cn1cncn1)c1ccc(F)cc1F [fluconazole],minimum-inhibitory concentration,Candida glabrata A239,2 µg/mL
CN[C@H](CC(C)C)C(=O)N[C@H]1C(=O)N[C@@H](CC(N)=O)C(=O)N[C@H]2C(=O)N[C@H]3C(=O)N[C@H](C(=O)N[C@H](C(=O)O)c4cc(O)cc(O)c4-c4cc3ccc4O)[C@H](O)c3ccc(c(Cl)c3)Oc3cc2cc(c3O[C@@H]2O[C@H](CO)[C@@H](O)[C@H](O)[C@H]2O[C@H]2C[C@](C)(N)[C@H](O)[C@H](C)O2)Oc2ccc(cc2Cl)[C@H]1O [vancomycin],Enterococci: VRE,[2]; [3],9.7 log 10 cfu/g faeces
same,Enterococci: VRE,[2]; [4],9.4 log 10 cfu/g faeces
same,% Mice with VRE,"[2]; Day 29, completion of ramoplanin therapy (15 mg/kg/day in drinking water, with 25 mg/kg/day vancomycin)",100%
same,% Mice with VRE,[2]; [5],100%
same,Enterococci: VRE,[2]; [5],9.3 log 10 cfu/g faeces
same,Enterococci: Total Enterococci,Total Enterococci; [3],9.6 log 10 cfu/g faeces
same,Enterococci: Total Enterococci,Total Enterococci; [4],9.3 log 10 cfu/g faeces
same,Enterococci: Total Enterococci,Total Enterococci; [5],9.6 log 10 cfu/g faeces
